Results from patent US20140066394A1, “Substituted 6-(Benzylamino) Purine Riboside Derivatives, Use Thereof and Compositions Containing These Derivatives” (Biopatterns, S.R.O, priority 2009, published 2014).

Key:
neutrophils = test: ANCA-induced neutrophil superoxide generation, lucigenin based assay; format: cell-based, human; conditions: single concentration 10 μM, 10 minute period (FIG. 11)
Description: FIG. 11 Inhibition of ANCA induced neutrophil ROS production by compound 10. Neutrophils were cultured at 2×10^6 cells/ml in RPMI1640 medium containing human serum antibiotics and 20 ng/ml TNFα for 10 minutes prior to addition of ANCA and a range of concentrations of compound 10. Generation of superoxide was determined over a 10 minute period using a lucigenin based assay. The area under the curve was calculated to give superoxide generation over the whole assay period.
ANCA are predominantly IgG autoantibodies directed against constituents of primary granules of neutrophils (PR3 and MPO). ANCA associated vasculitis is the most common primary systemic small-vessel vasculitis in adults. […] Neutrophils were cultured for 10 hours in RPMI1640 medium containing 2% human AB serum, 2 mM L-glutamine and antibiotics (100 U/ml penicillin, […] streptomycin) and their apoptosis determined by staining with Giemsa stain and observing an apoptotic morphology by light microscopy. […] The ability of compound 10 to inhibit ANCA-induced neutrophil inflammatory functions was also determined Neutrophils were cultured in RPMI1640 medium containing 2% human AB serum, 2 mM L-glutamine and antibiotics (100 U/ml penicillin, […] streptomycin). […] ANCA stimulated degranulation of neutrophils was assessed by release of myeloperoxidase in to the medium over a 30 minute period, with MPO measured by ELISA. […]

[1] = system: human skin melanoma G-361; test: In vitro cytotoxicity, Calcein AM assay, G-361; format: cell-based; conditions: Homo sapiens, G-361, 72 hours
Excerpt: (§1) Low cytotoxicity of the compounds is the major property determining the cosmetic use. One of the parameters used, as the basis for cytotoxicity assays, is the metabolic activity of viable cells. For example, a microtiter assay, which uses the Calcein AM, is now widely used to quantitate cell proliferation and cytotoxicity. For instance, this assay is used in drug screening programs and in chemosensitivity testing. Because only metabolically active cells cleave Calcein AM, these assays detect viable cells exclusively. The quantity of […] Calcein AM corresponds to the number of vital cells in the culture.
(§2) Human T-lymphoblastic leukemia cell line CEM; promyelocytic HL-60 and monocytic U937 leukemias; breast carcinoma cell lines MCF-7, BT549, MDA-MB-231; glioblastoma U87MG cells; cervical carcinoma cells HELA; sarcoma cells U2OS and Saos2; hepatocellular carcinoma HepG2; mouse fibroblasts NIH3T3; mouse immortalized bone marrow macrophages B2.4 and B10A.4; P388D1 and L1210 leukemia; B16 and B16F10 melanomas; human osteosarcoma HOS; human myeloid leukemia K-562; human skin melanoma G-361 were used for routine screening of compounds. The cells were maintained in Nunc/Corning 80 cm^2 plastic tissue culture flasks and cultured in cell culture medium (DMEM with 5 g/l glucose, 2 mM glutamine, 100 U/mL penicillin, 100 μg/mL streptomycin, 10% fetal calf serum and sodium bicarbonate).
(§3) The cell suspensions that were prepared and diluted according to the particular cell type and the expected target cell density (2.500-30.000 cells per well based on cell growth characteristics) were added by pipette ([…]) into 96/well microtiter plates. Inoculates were allowed a pre-incubation period of 24 hours at 37° C. and 5% CO2 for stabilisation. Four-fold dilutions of the intended test concentration were added at time zero in 20 μl aliquots to the microtiter plate wells. Usually, the compound tested was evaluated at six 4-fold dilutions. In routine testing, the highest well concentration was 100 μM, but it can be the matter of change dependent on the agent. All drug concentrations were examined in duplicates. Incubations of cells with the tested compounds lasted for 72 hours at 37° C., in 5% CO2 atmosphere and 100% humidity. At the end of the incubation period, the cells were assayed by using Calcein AM. Ten microliters of the stock solution were pipetted into each well and incubated for 1 hour. Fluorescence (FD) was measured with the Labsystem FIA Reader Fluoroscan Ascent (UK). The tumour cell survival (GI50) was calculated using the following equitation: TCS=(FDdrug exposed well/mean FDeontrol wells)×100%. The GI50 value, the drug concentration lethal to 50% of the tumour cells, was calculated from the obtained dose response curves.
(§4) Zero cytotoxicity of the novel compounds is the basic prerequisite for agricultural and tumor-unrelated applications. The cytoxicity of the novel compounds was tested on a panel of cell lines of different histogenetic and species origin (Table 9). We show herein that equal activities were found in all tumour cell lines tested, however, the non-malignant cells, e.g. NIH3T3 fibroblasts and normal human lymphocytes, were resistant to 2,6-disubstituted purine ribosides induced cytotoxicity. The compounds listed in Tab. 9 can be divided into 2 groups. The first group contains “classical cytokinins” represented by 6-substituted purine ribosides (which are known in the prior art). The second group contains the novel 2,6-disubstituted derivatives of these compounds. […] GI50 for NIH3T3 fibroblasts and normal human lymphocytes was always higher than 100 μM. The novel derivatives show no toxicity to normal and tumour cells in concentrations about 100 μM and thus are more suitable for agricultural applications than “classical cytokinins” (6-substituted purine riboside derivatives).

[2] = system: promyelocytic HL-60 leukemia; test: In vitro cytotoxicity, Calcein AM assay, HL60; format: cell-based, human; conditions: Homo sapiens, HL-60, 72 hours
Excerpt: as §1, §2, §3, §4

`COc1cccc(CNc2nc(Cl)nc3c2ncn3C2OC(CO)C(O)C2O)c1O` (stereo not drawn) [Compound 10, 2-Chloro-6-(2-hydroxy-3-methoxybenzylamino)purine riboside] was tested, and the ANCA-induced superoxide generation (neutrophils) was “completely inhibited ANCA-induced superoxide generation”, the GI50 [1] was greater than 100 µM and the GI50 [2] was greater than 100 µM.
